Assay results: ChEMBL document CHEMBL2034967, “Lipophilic amines as potent inhibitors of N-acylethanolamine-hydrolyzing acid amidase” (Bioorg Med Chem, 2012)
Activity calls are given as the source filed them. The calls are words filed in the database; no cut-off is given here.

Key:
[1] = biological target: T1, N-acylethanolamine-hydrolyzing acid amidase (Rattus norvegicus) (UniProt Q5KTC7); test: Inhibition of Wistar/ST rat lung NAAA assessed as residual activity for conversion of [14C]PEA to [14C]palmitic acid at 100 uM after 20 mins relative to control
T1 sequence (whole entry): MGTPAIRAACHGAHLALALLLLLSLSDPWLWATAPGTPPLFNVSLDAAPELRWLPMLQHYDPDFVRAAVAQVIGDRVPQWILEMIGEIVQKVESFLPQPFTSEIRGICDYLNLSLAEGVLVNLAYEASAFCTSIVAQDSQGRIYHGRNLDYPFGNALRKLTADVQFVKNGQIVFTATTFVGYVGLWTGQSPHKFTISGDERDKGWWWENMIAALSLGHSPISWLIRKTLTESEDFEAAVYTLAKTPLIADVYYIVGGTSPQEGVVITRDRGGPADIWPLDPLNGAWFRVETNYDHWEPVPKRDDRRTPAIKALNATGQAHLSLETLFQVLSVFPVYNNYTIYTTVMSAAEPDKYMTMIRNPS

[2] = biological target: T1, N-acylethanolamine-hydrolyzing acid amidase (Rattus norvegicus); test: Inhibition of Wistar/ST rat lung NAAA assessed as conversion of [14C]PEA to [14C]palmitic acid at 100 uM after 20 mins
[3] = biological target: T1, N-acylethanolamine-hydrolyzing acid amidase (Rattus norvegicus); test: Competitive inhibition of Wistar/ST rat lung NAAA using [14C]PEA as substrate at 5 uM by Line-Weaver Burk plot analysis
[4] = biological target: T2, Fatty-acid amide hydrolase 1 (Rattus norvegicus) (UniProt P97612); test: Inhibition of Wistar/ST rat liver FAAH assessed as conversion of [14C]PEA to [14C]palmitic acid at 100 uM at pH 8.5 after 20 mins
T2 sequence (whole entry): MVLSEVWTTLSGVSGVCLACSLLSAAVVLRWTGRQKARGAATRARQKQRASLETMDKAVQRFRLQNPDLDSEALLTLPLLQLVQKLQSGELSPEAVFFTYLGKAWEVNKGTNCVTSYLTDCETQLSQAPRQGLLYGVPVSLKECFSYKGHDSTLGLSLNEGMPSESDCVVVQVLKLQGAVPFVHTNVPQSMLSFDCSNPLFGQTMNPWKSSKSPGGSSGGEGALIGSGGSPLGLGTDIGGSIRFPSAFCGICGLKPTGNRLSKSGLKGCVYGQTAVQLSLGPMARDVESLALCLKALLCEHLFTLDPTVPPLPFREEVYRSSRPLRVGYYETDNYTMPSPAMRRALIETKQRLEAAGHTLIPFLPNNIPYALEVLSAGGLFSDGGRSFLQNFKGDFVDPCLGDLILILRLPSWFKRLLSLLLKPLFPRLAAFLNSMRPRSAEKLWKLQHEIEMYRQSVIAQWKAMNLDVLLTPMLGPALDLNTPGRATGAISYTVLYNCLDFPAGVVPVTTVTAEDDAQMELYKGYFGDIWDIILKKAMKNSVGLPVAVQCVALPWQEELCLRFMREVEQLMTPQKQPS

[5] = biological target: T2, Fatty-acid amide hydrolase 1 (Rattus norvegicus); test: Inhibition of Wistar/ST rat liver FAAH assessed as conversion of [14C]PEA to [14C]palmitic acid at 100 uM at pH 5 after 20 mins
[6] = biological target: T3, N-acylethanolamine-hydrolyzing acid amidase (Rattus norvegicus, UniProt Q5KTC7); test: Inhibition of Wistar/ST rat lung NAAA assessed as conversion of [14C]PEA to [14C]palmitic acid after 20 mins
T3 sequence (Q5KTC7 whole entry): T1 sequence (whole entry)

[7] = biological target: T1, N-acylethanolamine-hydrolyzing acid amidase (Rattus norvegicus); test: Competitive inhibition of Wistar/ST rat lung NAAA using [14C]PEA as substrate at 10 uM by Line-Weaver Burk plot analysis

## CCCCCCCCCCCCCCCCOCCCN
[1]
  Activity: 84%

## CCCCCCCCCCCCCCCC(=O)OCCCN
[1]
  Activity: 48%

## CCCCCCCCCCCCCCOCCCN
[1]
  Activity: 71%

## CCCCCCCCCCCCCCCNC(=O)C1CCCCC1
[2]
  inhibition: inactive

## CCCCCCCCCCCCCCCC(=O)NCC(=O)O
[2]
  inhibition: inactive

## CCCCCCCCCCCC(=O)OCCCN
[1]
  Activity: 63%

## CCCCCCCCCCCCCCCCOCCN
[1]
  Activity: 91%

## CCCCCCCCCCCCOC(=O)CCN
[1]
  Activity: 51%

## CCCCCCCCCCCCCOC(=O)CCN
[1]
  Activity: 29%

## CCCCCCCCCCCCOCCN
[1]
  Activity: 40%

## CCCCCCCCCCCCCCN
[2]
  inhibition: Active

## CCCCCCCCCCCCCCCN [PENTADECYLAMINE]
[3]
  inhibition: Active
[4]
  inhibition: inactive
[2]
  inhibition: Active
[5]
  inhibition: 25%
[6]
  IC50: 5.7 µM

## CCCCCCCCCCCCCCCC(=O)OCCN
[1]
  Activity: 50%

## CCCCCCCCCCCCCCOC(=O)CN
[1]
  Activity: 16%

## CCCCCCCCCCCCOC(=O)CN
[1]
  Activity: 34%

## CCCCCCCCCCCCOCCCN
[1]
  Activity: 73%

## CCCCCCCCCCCC(=O)OCCN
[1]
  Activity: 74%

## CCCCCCCCCCCCCCCC[N+](C)(C)C
[2]
  inhibition: Active

## CCCCCCCCCCCCCCCCN
[2]
  inhibition: Active

## CCCCCCCCCCCCCCCOC(=O)CN
[1]
  Activity: 42%

## CCCCCCCCCCCCN
[2]
  inhibition: Active

## CCCCCCCCCCCCCC(=O)OCCN
[1]
  Activity: 46%

## CCCCC/C=C\C/C=C\C/C=C\C/C=C\CCCC(=O)NCC(=O)O
[2]
  inhibition: inactive

## CCCCCCCCCCCCCCOC(=O)CCN
[1]
  Activity: 30%

## CCCCCCCCCCCCCC(=O)OCCCN
[1]
  Activity: 46%

## CCCCCCCCCCCCCCOCCN
[1]
  Activity: 48%

## CCCCCCCCCC(=O)OCCCN
[1]
  Activity: 55%

## CCCCCCCCCCCCCCCCOC(=O)CN
[1]
  Activity: 71%

## CCCCCCCCCC(=O)OCCN
[1]
  Activity: 89%

## CCCCCCCCCCCCCOC(=O)CN
[4]
  inhibition: inactive
[1]
  Activity: 11%
[7]
  inhibition: Active
[5]
  inhibition: 7%
[6]
  IC50: 11.8 µM
